Earlier results, collected in patent US20260207540A1 (priority 2020, published 2026).

Key:
[1] = inhalation challenge 0.25 to 10.0 mg/mL
[2] = system: SRCR (scavenger receptor cysteine-rich) domain; settings: proteins with calcium binding sites similar to host protease TMPRSS2
[3] = 1 microgram/kg IV, canines

Compound | Rubella virus infection (Rubella virus; in the "test tube") | Rubella fusion (Rubella virus; in vitro, addition of the calcium chelator) | bronchoconstriction [1] | calcium-dependent binding [2] | EDTA-induced bronchoconstriction [3]
O=C(O)CN(CCN(CC(=O)O)CC(=O)O)CC(=O)O [EDTA, ethylenediamine tetraacetic acid] | prevented | completely abrogated | concentration-dependent bronchoconstriction | disrupted | –
albuterol sulfate | – | – | – | – | significantly attenuated
